Literature values in patent US20070197544A1, “ILOPROST IN COMBINATION THERAPIES FOR THE TREATMENT OF PULMONARY ARTERIAL HYPERTENSION” (CoTherix, Inc., priority 2003, published 2007).
Where a name gives a salt, the structure may show the parent alone. Read-outs that look alike come from different tables or passages of the source.

Tests used:
[1] = 20 mg, 12-week period
[2] = at least one year of treatment
[3] = long-term use of aerosolized iloprost, severe pulmonary hypertension
[4] = versus placebo, severe PAH
[5] = continuous infusion, severe pulmonary hypertension
[6] = administered by aerosolization, patients with pulmonary hypertension
[7] = open pilot study
[8] = not given; remark: listed apart in the source
[9] = oral, at 3 and 6 months

COc1ccccc1Oc1c(NS(=O)(=O)c2ccc(C(C)(C)C)cc2)nc(-c2ncccn2)nc1OCCO [bosentan]
liver toxicity (higher dose): liver toxicity occurred | six minute walk test (whole group, improvement greater at higher doses): improved

CN1CC(=O)N2[C@H](c3ccc4c(c3)OCO4)c3[nH]c4ccccc4c3C[C@@H]2C1=O [Cialis, Tadalafil]
most commonly reported (greater than or equal to 5 percent) treatment-emergent adverse effects [1]: headache, back pain, and upset stomach | patients who discontinued the study because of adverse events [1]: 5% | most commonly reported treatment-emergent adverse effects ([2]; 10 mg or 20 mg): headache and upset stomach | discontinuation rate for any individual adverse event [2]: less than 1% | patients who discontinued the study due to side effects [2]: Five

CC#CCC(C)[C@H](O)/C=C/[C@@H]1[C@H]2C/C(=C/CCCC(=O)O)C[C@H]2C[C@H]1O (stereo partly shown) [Iloprost]
clinical improvement [3]: substantial clinical improvement | exercise capacity [4]: improved exercise capacity

CCCCC[C@H](O)/C=C/[C@@H]1[C@H]2C/C(=C/CCCC(=O)O)O[C@H]2C[C@H]1O [prostacyclin]
mortality [5]: reduce mortality | duration of effects (pulmonary vasodilatation) [6]: 15 min

Cc1cc2c(cc1CC(=O)c1sccc1S(=O)(=O)Nc1onc(C)c1Cl)OCO2 [sitaxsentan]
decrease in pulmonary vascular resistance [7]: 30% | six minute walk test [7]: improvement

CCCc1nc(C)c2c(=O)[nH]c(-c3cc(S(=O)(=O)N4CCN(CC)CC4)ccc3OCC)nn12 [Levitra, vardenafil HCl]
most commonly reported side effects ([8]; in vivo): headache, flushing, and stuffy or runny nose | erectile function ([8]; phase III clinical studies): Helped men get and keep an erection sufficient for satisfactory sexual performance

CC#CCC(C)[C@H](O)/C=C/[C@@H]1[C@H]2c3cccc(CCCC(=O)O)c3O[C@H]2C[C@H]1O (mixture of isomers) [Beraprost]
benefit in PAH [9]: shown a benefit
